Experimental data published in patent US6448270B1, “4-substituted piperidine analogs and their use as subtype selective NMDA receptor antagonists” (Warner-Lambert Company, priority 1995, dated 2002).
Like-named read-outs stand apart in the source and are kept apart here.

Key:
[1] = biological target: NR1A/NR2A NMDA receptor (Rattus norvegicus, UniProt P35439+Q00959); test: Electrophysiological assay, cloned NMDA receptor subunits expressed in Xenopus oocytes (1A/2A); assay type: cell-based
Excerpt: (§1) Electrophysiological Assays at NMDA Receptor Subunits
(§2) cDNA clones encoding the NR1A, NR2A, NR2B, NR2C and NR2D rat NMDA receptor subtypes were provided by Dr. P. H. Seeburg (see, Moriyoshi et al., Nature (Lond.) 354:31-37 (1991); Kutsuwada et al., Nature (Lond.) 358:36-41 (1992) Monyer et al., Science (Washington, D.C.) 256:1217-1221 (1992); Ikeda et al., FEBS Lett. 313:34-38 (1992); Ishii et al., J. Biol. Chem. 268:2836-2843 (1993) for details of these clones or their mouse homologs). The clones were transformed into appropriate host bacteria and plasmid preparations were made with conventional DNA purification techniques. […]
(§3) Electrical recordings were made using a conventional two-electrode voltage clamp (Dagan TEV-200) over periods ranging between 3-21 days following injection. […] Inhibitory potency of the novel antagonists was assessed on responses elicited by fixed concentrations of glutamate and glycine, by measuring reductions in current induced by progressively increasing concentrations of antagonist. […]
(§4) in which Icontrol is the current evoked by agonists alone, pIC50=−log IC50, IC50 is the concentration of antagonist that produces half maximal inhibition, and n is the slope factor. […] For incomplete curves analysis by fitting was unreliable and IC50 values were calculated by simple regression over linear portions of the curves (Origin: Microcal Software).

[2] = tested on: maximal electroshock-induced seizures; test: Maximal electroshock-induced seizures (MES); assay type: in vivo, mice; settings: for ED50: Mus musculus, mice, tonic hindlimb extensor response, corneal electrodes 50 mA; for activity against maximal electroshock (MES): statement in words, refers to Table 3
Experimental: Maximal Electroshock-induced Seizures
Seizures were induced by application of current (50 mA, 60 pulses/sec, 0.8 sec pulse width, 1 sec duration, d.c.) through saline-coated corneal electrodes using a Ugo Basile ECT device (Model 7801). […] A tonic seizure was defined as a hindlimb extension in excess of 90 degrees from the plane of the body. Results were treated in a quantal manner.

[3] = biological target: NR1A/NR2D NMDA receptor (Rattus norvegicus, UniProt P35439+Q62645); test: Electrophysiological assay, cloned NMDA receptor subunits expressed in Xenopus oocytes (1A/2D); assay type: cell-based; settings: read-out: Subunits (IC50 (μM)) 1A/2D, mean IC50, inhibition of NMDA-activated membrane current responses, glutamate 100 μM + glycine
Excerpt: as §1, §2, §3, §4

[4] = biological target: NR1A/NR2C NMDA receptor (Rattus norvegicus, UniProt P35439+Q00961); test: Electrophysiological assay, cloned NMDA receptor subunits expressed in Xenopus oocytes (1A/2C); assay type: cell-based; settings: read-out: Subunits (IC50 (μM)) 1A/2C, mean IC50, inhibition of NMDA-activated membrane current responses, glutamate 100 μM + glycine
Excerpt: as §1, §2, §3, §4

[5] = biological target: NR1A/NR2B NMDA receptor (Rattus norvegicus, UniProt P35439+Q00960); test: Electrophysiological assay, cloned NMDA receptor subunits expressed in Xenopus oocytes (1A/2B); assay type: cell-based
Excerpt: as §1
cDNA clones encoding the NR1A, NR2A, NR2B, NR2C and NR2D rat NMDA receptor subtypes were provided by Dr. P. H. Seeburg (see, Moriyoshi et al., Nature (Lond.) 354:31-37 (1991); Kutsuwada et al., Nature (Lond.) 358:36-41 (1992) Monyer et al., Science (Washington, D.C.) 256:1217-1221 (1992); Ikeda et al., FEBS Lett. 313:34-38 (1992); Ishii et al., J. Biol. Chem. 268:2836-2843 (1993) for details of these clones or their mouse homologs). The clones were transformed into appropriate host bacteria and plasmid preparations were made with conventional DNA purification techniques. A sample of each clone was linearized by restriction enzyme digestion and cRNA was synthesized with T3 RNA polymerase. The CRNA was diluted to 400 ng/μl and stored in 1 μl aliquots at −80° C. until injection.
Mature female Xenopus laevis were anaesthetized (20-40 min) using 0.15% 3-aminobenzoic acid ethyl ester (MS-222) and 2-4 ovarian lobes were surgically removed. Oocytes at developmental stages IV-VI (Dumont, J. N., J. Morphol. 136:153-180 (1972)), were dissected from the ovary still surrounded by enveloping ovarian tissues. Follicle-enclosed oocytes were micro-injected with 1:1 mixtures of cRNA:NR1A+NR2A, 2B, 2C or 2D; injecting ˜2,5, or 20 ng of RNA encoding each receptor subunit. […]
as §3, §4

[6] = mean IC50, inhibition of NMDA-activated membrane current responses, glutamate 100 μM + glycine, read-out: Subunits (IC50 (μM)) 1A/2B

Chain of NR1A/NR2B NMDA receptor (Q00960 27-1482, other chains not shown): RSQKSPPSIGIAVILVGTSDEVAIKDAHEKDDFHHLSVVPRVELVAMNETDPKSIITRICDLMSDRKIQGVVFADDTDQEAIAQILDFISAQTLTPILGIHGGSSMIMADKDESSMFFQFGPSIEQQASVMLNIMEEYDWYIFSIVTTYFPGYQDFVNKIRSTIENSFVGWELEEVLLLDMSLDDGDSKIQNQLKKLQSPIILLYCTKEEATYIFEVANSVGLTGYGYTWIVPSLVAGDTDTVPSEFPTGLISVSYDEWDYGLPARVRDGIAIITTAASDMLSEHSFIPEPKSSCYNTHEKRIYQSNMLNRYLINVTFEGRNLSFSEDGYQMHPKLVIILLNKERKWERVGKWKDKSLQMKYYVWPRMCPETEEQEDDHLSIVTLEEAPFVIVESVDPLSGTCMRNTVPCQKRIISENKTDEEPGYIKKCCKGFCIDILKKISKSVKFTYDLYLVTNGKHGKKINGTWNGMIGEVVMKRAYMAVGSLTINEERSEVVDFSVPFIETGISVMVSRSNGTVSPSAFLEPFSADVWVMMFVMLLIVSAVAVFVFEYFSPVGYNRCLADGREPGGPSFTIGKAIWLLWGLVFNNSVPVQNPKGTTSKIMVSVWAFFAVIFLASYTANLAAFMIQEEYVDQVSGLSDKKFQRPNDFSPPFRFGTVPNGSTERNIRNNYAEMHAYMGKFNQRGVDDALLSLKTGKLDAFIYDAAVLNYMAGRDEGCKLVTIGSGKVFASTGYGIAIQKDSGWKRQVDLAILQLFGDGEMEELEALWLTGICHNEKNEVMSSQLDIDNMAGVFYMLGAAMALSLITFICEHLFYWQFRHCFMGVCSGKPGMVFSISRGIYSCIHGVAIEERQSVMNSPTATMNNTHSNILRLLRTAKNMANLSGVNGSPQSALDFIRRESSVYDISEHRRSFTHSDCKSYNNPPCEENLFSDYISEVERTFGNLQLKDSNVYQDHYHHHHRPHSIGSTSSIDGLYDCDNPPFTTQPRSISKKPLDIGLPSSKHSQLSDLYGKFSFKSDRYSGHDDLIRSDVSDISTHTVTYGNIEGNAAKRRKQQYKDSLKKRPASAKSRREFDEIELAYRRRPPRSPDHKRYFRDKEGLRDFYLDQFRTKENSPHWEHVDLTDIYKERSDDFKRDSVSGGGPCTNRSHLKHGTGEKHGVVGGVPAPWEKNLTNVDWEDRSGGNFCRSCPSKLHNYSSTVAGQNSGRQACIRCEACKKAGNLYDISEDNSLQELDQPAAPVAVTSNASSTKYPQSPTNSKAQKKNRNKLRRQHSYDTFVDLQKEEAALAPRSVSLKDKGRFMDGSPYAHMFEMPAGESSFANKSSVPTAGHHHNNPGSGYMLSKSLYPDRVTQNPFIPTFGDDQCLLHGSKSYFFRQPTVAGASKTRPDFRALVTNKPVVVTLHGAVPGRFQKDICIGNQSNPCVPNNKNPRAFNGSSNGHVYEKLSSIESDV
Chain of NR1A/NR2A NMDA receptor (Q00959 20-1464 limits assumed, other chains not shown): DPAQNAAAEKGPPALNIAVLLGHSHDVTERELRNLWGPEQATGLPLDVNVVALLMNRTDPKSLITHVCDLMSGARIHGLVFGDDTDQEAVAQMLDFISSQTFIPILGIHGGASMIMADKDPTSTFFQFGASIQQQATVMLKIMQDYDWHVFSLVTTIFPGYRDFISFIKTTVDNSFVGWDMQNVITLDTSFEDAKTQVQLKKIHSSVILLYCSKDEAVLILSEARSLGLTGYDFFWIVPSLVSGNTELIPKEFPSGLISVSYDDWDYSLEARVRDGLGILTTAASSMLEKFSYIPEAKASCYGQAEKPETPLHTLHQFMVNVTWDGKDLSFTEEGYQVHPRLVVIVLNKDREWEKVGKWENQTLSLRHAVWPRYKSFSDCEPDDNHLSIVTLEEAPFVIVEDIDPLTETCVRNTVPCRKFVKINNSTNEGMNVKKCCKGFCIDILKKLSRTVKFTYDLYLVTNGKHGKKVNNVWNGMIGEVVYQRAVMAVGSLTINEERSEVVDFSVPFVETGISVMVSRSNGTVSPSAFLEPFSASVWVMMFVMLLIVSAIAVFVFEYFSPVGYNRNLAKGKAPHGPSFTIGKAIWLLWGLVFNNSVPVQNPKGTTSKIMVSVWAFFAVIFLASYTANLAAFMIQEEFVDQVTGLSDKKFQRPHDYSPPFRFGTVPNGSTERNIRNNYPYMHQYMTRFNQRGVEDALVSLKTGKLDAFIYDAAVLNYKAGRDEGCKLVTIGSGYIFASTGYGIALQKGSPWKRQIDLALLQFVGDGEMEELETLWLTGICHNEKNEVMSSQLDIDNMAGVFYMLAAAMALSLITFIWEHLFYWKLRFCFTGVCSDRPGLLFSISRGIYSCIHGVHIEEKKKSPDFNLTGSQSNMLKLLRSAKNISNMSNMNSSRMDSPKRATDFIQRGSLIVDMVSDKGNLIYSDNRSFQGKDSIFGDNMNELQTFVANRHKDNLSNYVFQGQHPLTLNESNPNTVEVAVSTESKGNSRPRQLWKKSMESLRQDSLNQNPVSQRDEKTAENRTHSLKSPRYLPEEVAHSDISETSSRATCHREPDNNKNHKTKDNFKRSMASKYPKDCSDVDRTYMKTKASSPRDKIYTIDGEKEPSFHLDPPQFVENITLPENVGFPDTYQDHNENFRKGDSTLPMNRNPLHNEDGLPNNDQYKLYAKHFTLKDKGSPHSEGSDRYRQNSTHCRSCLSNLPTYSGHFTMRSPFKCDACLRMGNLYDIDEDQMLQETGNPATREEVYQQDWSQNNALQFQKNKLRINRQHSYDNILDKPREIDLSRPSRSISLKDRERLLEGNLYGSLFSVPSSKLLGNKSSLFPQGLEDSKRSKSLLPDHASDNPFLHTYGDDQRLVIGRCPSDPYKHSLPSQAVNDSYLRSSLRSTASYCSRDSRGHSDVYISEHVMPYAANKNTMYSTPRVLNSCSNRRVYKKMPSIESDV
Chain of NR1A/NR2D NMDA receptor (Q62645 28-1323, other chains not shown): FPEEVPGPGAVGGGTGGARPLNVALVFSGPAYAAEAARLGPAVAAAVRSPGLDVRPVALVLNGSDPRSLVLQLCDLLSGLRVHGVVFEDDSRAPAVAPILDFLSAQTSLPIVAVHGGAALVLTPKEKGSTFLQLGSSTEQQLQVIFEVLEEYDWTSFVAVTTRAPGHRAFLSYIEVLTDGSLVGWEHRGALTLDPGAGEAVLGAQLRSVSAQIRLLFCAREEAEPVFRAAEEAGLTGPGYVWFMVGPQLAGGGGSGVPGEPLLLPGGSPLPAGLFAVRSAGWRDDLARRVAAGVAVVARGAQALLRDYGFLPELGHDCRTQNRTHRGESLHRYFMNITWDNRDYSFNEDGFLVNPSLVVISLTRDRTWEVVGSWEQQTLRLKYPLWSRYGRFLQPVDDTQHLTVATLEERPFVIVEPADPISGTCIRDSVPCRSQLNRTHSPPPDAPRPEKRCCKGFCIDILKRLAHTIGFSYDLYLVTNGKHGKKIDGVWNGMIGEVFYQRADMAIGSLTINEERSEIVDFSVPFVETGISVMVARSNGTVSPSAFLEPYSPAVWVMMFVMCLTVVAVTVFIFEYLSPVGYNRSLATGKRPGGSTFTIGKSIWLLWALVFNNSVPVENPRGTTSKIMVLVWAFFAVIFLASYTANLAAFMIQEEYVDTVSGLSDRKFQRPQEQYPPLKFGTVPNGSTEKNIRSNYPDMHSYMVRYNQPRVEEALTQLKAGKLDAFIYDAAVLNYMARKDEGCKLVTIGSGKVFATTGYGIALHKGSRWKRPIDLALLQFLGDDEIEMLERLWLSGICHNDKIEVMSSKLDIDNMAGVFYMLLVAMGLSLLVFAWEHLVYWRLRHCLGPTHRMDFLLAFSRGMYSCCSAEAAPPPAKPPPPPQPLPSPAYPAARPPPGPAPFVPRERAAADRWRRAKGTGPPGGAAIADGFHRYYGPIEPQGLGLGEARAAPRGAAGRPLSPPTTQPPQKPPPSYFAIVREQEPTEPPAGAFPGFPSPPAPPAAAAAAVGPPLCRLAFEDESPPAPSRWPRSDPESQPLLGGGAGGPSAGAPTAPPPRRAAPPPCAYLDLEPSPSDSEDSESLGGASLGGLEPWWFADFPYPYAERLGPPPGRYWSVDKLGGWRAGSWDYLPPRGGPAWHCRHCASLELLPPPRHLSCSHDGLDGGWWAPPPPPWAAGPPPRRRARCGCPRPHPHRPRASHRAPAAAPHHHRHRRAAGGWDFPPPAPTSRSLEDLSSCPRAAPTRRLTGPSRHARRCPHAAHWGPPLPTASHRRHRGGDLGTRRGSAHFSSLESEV

Row | SMILES | ED50 [2] [mg/kg] | activity against maximal electroshock (MES) [2] | further results
1 | NCc1cccc(C#CCCN2CCC(Cc3ccccc3)CC2)c1 [Ex. 52, 3-[4-(4-Benzyl-piperidin-1-yl)-but-1-ynyl]-benzylamine] |  |  | IC50 ([1]; mean IC50, inhibition of NMDA-activated membrane current responses, glutamate 100 μM + glycine, read-out: Subunits (IC50 (μM)) 1A/2A): 15 µM
2 | Cc1ccc(CC2CCN(CCC#Cc3ccc(O)cc3)CC2)cc1 [Ex. 67, 4-{4-[4-(4-Methyl-benzyl)-piperidin-1-yl]-but-1-ynyl}-phenol] | 6 | potent activity | 
3 | Cc1ccc(CC2(O)CCN(CCC#Cc3ccc(N)cc3)CC2)cc1 [Ex. 77, 1-(1-(4-Aminophenyl)-1-butyn-4-yl)-4-hydroxy-4-(4-methylbenzyl)piperidine] | 0.4 |  | 
4 | Nc1cccc(C#CCCN2CC=C(c3ccccc3)CC2)c1 [Ex. 14, 1-[4-(5-Aminophenyl)-3-butynyl]-4-phenyl-1,2,5,6-tetrahydropyridine] |  |  | IC50 [3]: > 100 µM; IC50 [4]: > 100 µM; IC50 ([1]; read-out: Subunits (IC50 (μM)) 1A/2A, mean IC50, inhibition of NMDA-activated membrane current responses, glutamate 100 μM + glycine): 40 µM; IC50 ([5]; read-out: Subunits (IC50 (μM)) 1A/2B, mean IC50, inhibition of NMDA-activated membrane current responses, glutamate 100 μM + glycine): 30 µM
5 | C(#Cc1ccccc1)CCN1CCC(Cc2ccccc2)CC1 [Ex. 18, 4-Benzyl-1-(4-phenyl-3-butynyl)piperidine] | 3.5 | potent activity | 
6 | CC(=O)Nc1ccc(C#CCCN2CCC(Cc3ccccc3)CC2)cc1 [Ex. 53, N-{4-[4-(4-Benzyl-piperidin-1-yl)-but-1-ynyl]-phenyl}-acetamide] | 8 | potent activity | 
7 | Nc1ccc(C#CCN2CCC(Cc3ccccc3)CC2)cc1 [Ex. 63, 4-[3-(4-Benzyl-piperidin-1-yl)-prop-1-ynyl]-phenylamine] |  |  | IC50 [5, 6]: 12 µM
8 | NS(=O)(=O)c1ccc(C#CCCN2CCC(Cc3ccccc3)CC2)cc1 [Ex. 59, 4-[4-(4-Benzyl-piperidin-1-yl)-but-1-ynyl]-benzenesulfonamide] | > 5 |  | 
9 | O=[N+]([O-])c1ccc(C#CCCN2CCC(Cc3ccccc3)CC2)cc1 [Ex. 40, 4-Benzyl-1-[4-(4-nitro-phenyl)-but-3-ynyl]-piperidine] |  |  | IC50 [5, 6]: 5 µM
10 | Nc1cccc(C#CCCN2CCC(O)(c3ccc(Cl)cc3)CC2)c1 [Ex. 8, 1-[4-(3-Aminophenyl)-3-butynyl]-4-hydroxy-4-(4-chlorophenyl)piperidine] | 10 | potent activity | 
11 | CNc1ccc(C#CCCN2CCC(Cc3ccccc3)CC2)cc1 [Ex. 54, {4-[4-(4-Benzyl-piperidin-1-yl)-but-1-ynyl]-phenyl}-methyl-amine] | 6.5 | potent activity | 
12 | Nc1ccc(C#CCCN2CCC(Cc3ccccc3)CC2)cc1 [Ex. 30, 1-(4-(4-Aminophenyl)-3-butynyl)-4-benzylpiperidine] | 1.8 | potent activity | 
13 | CCCCNC(=N)Nc1cccc(C#CCCN2CCC(O)(c3ccc(Cl)cc3)CC2)c1 [Ex. 28, N-n-Butyl-N′-(3-(4-(4-(4-chlorophenyl)-4-hydroxy)piperidinyl)butynyl)phenylguanidine] | 10 | potent activity | melting point: 98 to 100 °C
14 | Cc1ccc(CC2CCN(CCC#Cc3ccc(N)cc3)CC2)cc1 [Ex. 39, 4-{4-[4-(4-Methyl-benzyl)-piperidin-1-yl]-but-1-ynyl}-phenylamine] | 2.5 | potent activity | 
15 | Oc1ccc(C#CCCN2CCC(Cc3ccccc3)CC2)cc1 [Ex. 42, 4-[4-(4-Benzyl-piperidin-1-yl)-but-1-ynyl]-phenol] | 2.5 | potent activity | 
